Assay results published in US5240714A, “Non-digoxin-like Na^+, K^+ -ATPase inhibitory factor” (priority 1989, dated 1993).

Tested on: anti-digoxin antibody
Experiment: digoxin radioimmunoassay (cross-reactivity with anti-digoxin antibody)
Assay type: binding
Details: at the doses tested
Protocol: Radioimmunoassay. Generally, a digoxin antibody covalently bound to the inner surface of polypropylene tubes was used, obtained from Immunochem (USA). Digoxin standards and samples were diluted 1:2 in 1.5M Tris-ClH, pH 7.5. ^125 I-digoxin (2000 μCi/μg) was used.
As stated previously, this cross reaction is not a necessary criteria for HHIF. However, this method is used to follow and evaluate digoxin-like substances in the exemplary purification procedures. An RIA commercial kit was used, purchased from Immunochem. Digoxin standards and sample preparations were diluted 1:2 in 1.5M Tris-ClH, pH 7.5. Digoxin antibodies were covalently bound to the inner surface of polypropylene tubes. After a 30 min. incubation at 20° C., tubes with sample plus I^125 -digoxin unbound radioactivity are discarded and the tubes counted by […]. Values of DLA are calculated by extrapolating from the standard curve constructed on semilogarithmic paper with plots of B/B. vs. concentration.
A radioimmunoassay method based on charcoal separation using a commercial antibody elicited in rabbit against digoxin is also used as described by Smith, T. W., et al. "Determination Of Therapeutic And Toxic Serum Digoxin Concentrations By Radioimmunoassay." The New England J Med. 1969;1212-1216.

## C[C@@H]1O[C@@H](O[C@H]2C[C@@H](O)[C@]3(CO)[C@H]4[C@H](O)C[C@]5(C)[C@@H](C6=CC(=O)OC6)CC[C@]5(O)[C@@H]4CC[C@]3(O)C2)[C@H](O)[C@H](O)[C@H]1O [ouabain]
  cross-reactivity with anti-digoxin antibody (digoxin immunoreactivity): weakly cross-reacted
